Measurements from US4337199A, “Antibiotic β-lactam compounds, production thereof, and their use as antimicrobial agent” (Sanraku-Ocean Co., Ltd., priority 1978, dated 1982).
Converted amounts (≈) assume the structure as drawn.

Assays:
Test in all cases: minimum inhibitory concentration, agar dilution assay
Type in all cases: cell-based
Alcaligenes faecalis A 1 = settings: A1, agar dilution, 35° C., 20 hours, read-out: minimum inhibitory concentration
Description: (§1) The antibiotic activities shown in Tables I-1 to I-8 above were determined in the following manner.
(§2) The minimum inhibitory concentrations of the compounds of formula (I-a-1) or (I-b-1) in Tables I-1 to I-7 and the known compounds in Table I-8 on the various microorganisms shown in the above tables were measured by an agar dilution assay method using a brain heart infusion agar medium "Difco" (a product of Difco Laboratories Inc.)
(§3) A sample of the test compound was dissolved in sterile distilled water and diluted to prepare a two-fold dilution series of the compound solution. In a petri plate of 9 cm diameter, 1 ml of the compound solution was added to 9 ml of molten sterile heart infusion agar medium (Difco Laboratories Inc.) at about 60° C. to prepare the compound-containing agar plate. An overnight culture of each test organism indicated in the above table which was prepared by stationary cultivation in Trypto-Soy broth (Eiken Chemi. Co., Ltd.) at 35° C. for 18 to 20 hours, was diluted with the Trypto-Soy broth to give approximately 10^8 cells/ml and the diluted inoculum was inoculated onto the compound-containing agar plates. After cultivating the plates at 35° C. for 20 hours, the growth of the organism was observed. The minimum concentration of the compound at which no growth of the microorganism was noted was determined, and defined as the minimum inhibitory concentration of the test compound.

[1] = test system: Bacillus subtilis ATCC 6633; settings: ATCC6633, agar dilution, 35° C., 20 hours, read-out: minimum inhibitory concentration
Description: as §1, §2, §3

[2] = test system: Citrobacter freundii GN 346; settings: GN346, agar dilution, 35° C., 20 hours, read-out: minimum inhibitory concentration
Description: as §1, §2, §3

[3] = test system: Comamonas terrigena B-996; settings: B996, agar dilution, 35° C., 20 hours, read-out: minimum inhibitory concentration
Description: as §1, §2, §3

[4] = test system: Enterobacter aerogenes E19; settings: Klebsiella aerogenes, E19; agar dilution, 35° C., 20 hours; read-out: minimum inhibitory concentration
Description: as §1, §2, §3

Enterobacter cloacae 45 = settings: Enterobacter cloacae, 45; agar dilution, 35° C., 20 hours; read-out: minimum inhibitory concentration
Description: as §1, §2, §3

Enterobacter sp. E8 = settings: SP.E8, agar dilution, 35° C., 20 hours, read-out: minimum inhibitory concentration
Description: as §1, §2, §3

Escherichia coli K-12 = settings: K12, agar dilution, 35° C., 20 hours, read-out: minimum inhibitory concentration
Description: as §1, §2, §3

Escherichia coli RGN 823 = settings: RGN823, agar dilution, 35° C., 20 hours, read-out: minimum inhibitory concentration
Description: as §1, §2, §3

[5] = test system: Klebsiella pneumoniae K-13; settings: K13, agar dilution, 35° C., 20 hours, read-out: minimum inhibitory concentration
Description: as §1, §2, §3

Proteus mirabilis P6 = settings: P6, agar dilution, 35° C., 20 hours, read-out: minimum inhibitory concentration
Description: as §1, §2, §3

Proteus rettgeri P7 = settings: Providencia rettgeri, P7; agar dilution, 35° C., 20 hours; read-out: minimum inhibitory concentration
Description: as §1, §2, §3

Proteus sp. P22 = settings: agar dilution, 35° C., 20 hours; read-out: minimum inhibitory concentration
Description: as §1, §2, §3

Proteus vulgaris GN76 = settings: GN76, agar dilution, 35° C., 20 hours, read-out: minimum inhibitory concentration
Description: as §1, §2, §3

Providencia sp. P8 = settings: SP.P8, agar dilution, 35° C., 20 hours, read-out: minimum inhibitory concentration
Description: as §1, §2, §3

[6] = test system: Pseudomonas aeruginosa IFO3445; settings: IFO3445, agar dilution, 35° C., 20 hours, read-out: minimum inhibitory concentration
Description: as §1, §2, §3

[7] = test system: Pseudomonas aeruginosa NCTC10490; settings: NCTC10490, agar dilution, 35° C., 20 hours, read-out: minimum inhibitory concentration
Description: as §1, §2, §3

Sarcina lutea = settings: Micrococcus luteus; agar dilution, 35° C., 20 hours; read-out: minimum inhibitory concentration
Description: as §1, §2, §3

Serratia marcescens S18 = settings: S18, agar dilution, 35° C., 20 hours, read-out: minimum inhibitory concentration
Description: as §1, §2, §3

Serratia marcescens T55 = settings: T55, agar dilution, 35° C., 20 hours, read-out: minimum inhibitory concentration
Description: as §1, §2, §3

[8] = test system: Staphylococcus aureus FDA 209P; settings: FDA209P, agar dilution, 35° C., 20 hours, read-out: minimum inhibitory concentration
Description: as §1, §2, §3

[9] = test system: Staphylococcus aureus Russell; settings: agar dilution, 35° C., 20 hours, read-out: minimum inhibitory concentration
Description: as §1, §2, §3

[10] = test system: Staphylococcus aureus Smith; settings: agar dilution, 35° C., 20 hours, read-out: minimum inhibitory concentration
Description: as §1, §2, §3

[11] = test system: Staphylococcus epidermidis; settings: agar dilution, 35° C., 20 hours, read-out: minimum inhibitory concentration
Description: as §1, §2, §3

| MIC (Alcaligenes faecalis A 1) [mg/L] | MIC [1] [mg/L] | MIC [2] [mg/L] | MIC [4] [mg/L] | MIC (Enterobacter cloacae 45) [mg/L] | MIC (Enterobacter sp. E8) [mg/L] | MIC (Escherichia coli K-12) [mg/L] | MIC (Escherichia coli RGN 823) [mg/L] | MIC (Proteus mirabilis P6) [mg/L] | MIC (Proteus rettgeri P7) [mg/L] | MIC (Proteus sp. P22) [mg/L] | MIC (Proteus vulgaris GN76) [mg/L] | MIC (Providencia sp. P8) [mg/L] | MIC [6] [mg/L] | MIC [7] [mg/L] | MIC (Sarcina lutea) [mg/L] | MIC (Serratia marcescens S18) [mg/L] | MIC (Serratia marcescens T55) [mg/L] | MIC [8] [mg/L] | MIC [9] [mg/L] | SMILES | also measured |
| --- | --- | --- | --- | --- | --- | --- | --- | --- | --- | --- | --- | --- | --- | --- | --- | --- | --- | --- | --- | --- | --- |
| 6.25 (≈ 22.9 µM) | 6.25 (≈ 22.9 µM) | 12.5 (≈ 45.7 µM) | 12.5 (≈ 45.7 µM) | 6.25 (≈ 22.9 µM) | 6.25 (≈ 22.9 µM) | 3.13 (≈ 11.5 µM) | 12.5 (≈ 45.7 µM) | 50 (≈ 183 µM) | 50 (≈ 183 µM) | 100 (≈ 366 µM) | 50 (≈ 183 µM) | 6.25 (≈ 22.9 µM) | 12.5 (≈ 45.7 µM) | 12.5 (≈ 45.7 µM) | 1.56 (≈ 5.71 µM) | 25 (≈ 91.5 µM) | 50 (≈ 183 µM) | 0.39 (≈ 1.43 µM) | 3.13 (≈ 11.5 µM) | CC(O)[C@H]1C(=O)N2C(C(=O)O)=C(SCCO)C[C@H]12 (stereo partly shown) [R1 --OH*, R21 --CH2 CH2 OH] | MIC [3]: 0.1 mg/L (≈ 0.366 µM); MIC [5]: 25 mg/L (≈ 91.5 µM); MIC [10]: 3.13 mg/L (≈ 11.5 µM); MIC [11]: 3.13 mg/L (≈ 11.5 µM) |
| 5.6 | 0.09 | > 180 | > 180 | > 180 | > 180 | 180 | 180 | 45 | 180 | 90 | 180 | 180 | 180 | 22.5 | < 0.01 | > 180 | > 180 | < 0.01 | < 0.01 | CCC1C(=O)N2C(C(=O)O)=C(SC3CCCCC3)CC12 (stereo not shown) [Example 67, Sodium 3-cyclohexylthio-6-ethyl-7-oxo-1-azabicyclo[3.2.0.]hept-2-ene-2-carboxylate] | MIC [3]: < 0.01 mg/L; MIC [5]: > 180 mg/L; MIC [10]: 0.04 mg/L; MIC [11]: 0.04 mg/L |
| – | – | – | – | – | – | – | – | – | 6.25 (≈ 20.5 µM) | 12.5 (≈ 41.1 µM) | 12.5 (≈ 41.1 µM) | 3.13 (≈ 10.3 µM) | 50 (≈ 164 µM) | 50 (≈ 164 µM) | – | 50 (≈ 164 µM) | 50 (≈ 164 µM) | – | – | CC(C)C1C(=O)N2C(C(=O)O)=C(Sc3ccccn3)CC12 (stereo not shown) | – |
| – | – | – | – | – | – | – | – | – | 6.25 (≈ 21.5 µM) | 6.25 (≈ 21.5 µM) | 12.5 (≈ 43.1 µM) | 1.56 (≈ 5.37 µM) | 12.5 (≈ 43.1 µM) | 25 (≈ 86.1 µM) | – | 12.5 (≈ 43.1 µM) | 25 (≈ 86.1 µM) | – | – | CCC1C(=O)N2C(C(=O)O)=C(Sc3ccccn3)CC12 (stereo not shown) [Example 65, 3-(2-Pyridylthio)-6-ethyl-7-oxo-1-azabicyclo-[3.2.0]hept-2-ene-2-carboxylicacid] | – |
| 0.025 (≈ 0.0816 µM) | 0.2 (≈ 0.653 µM) | 100 (≈ 326 µM) | 50 (≈ 163 µM) | 50 (≈ 163 µM) | 0.78 (≈ 2.55 µM) | 1.56 (≈ 5.09 µM) | 25 (≈ 81.6 µM) | 6.25 (≈ 20.4 µM) | 6.25 (≈ 20.4 µM) | – | – | 1.56 (≈ 5.09 µM) | – | 1.56 (≈ 5.09 µM) | 0.1 (≈ 0.326 µM) | – | 100 (≈ 326 µM) | 0.1 (≈ 0.326 µM) | 0.2 (≈ 0.653 µM) | CC(O)[C@H]1C(=O)N2C(C(=O)O)=C(Sc3ccncc3)C[C@H]12 (stereo partly drawn) [Example 59, 5,6-trans-3-(4-Pyridylthio)-6-(1-hydroxyethyl)-7-oxo-1-azabicyclo[3.2.0]hept-2-ene-2-carboxylic acid] | MIC [10]: 0.2 mg/L (≈ 0.653 µM); MIC [11]: 0.2 mg/L (≈ 0.653 µM) |
